Data reported in US20260325538A1, “THERAPY” (priority 2023, published 2026).

Test system: Acinetobacter baumannii ST15 (NDM-1 OXA-51, ADC-263)
Assay: Checkerboard MIC, fixed concentration of sBLI (Examples 11-17)
Assay type: cell-based
Description: The antibiotics and serine β-lactamase-inhibitors (sBLIs) were purchased from the following suppliers: Ceftazidime (CAZ): Sigma-Aldrich; Cefepime (FEP): Sigma-Aldrich; Cefpodoxime (CEFP): MedChemExpress; Sulbactam (SUL): Sigma-Aldrich Avibactam (AVI): Biosynth; Vaborbactam (VAB): ABCR; Tazobactam (TAZ): Sigma-Aldrich; Taniborbactam (TAN): Sigma-Aldrich.
In each of Examples 3-23, the compound of Example 26 of WO 2018/033719 was employed as the zinc chelator. The following abbreviations are used in these examples: sBLI means serine-β-lactamase inhibitor; CFU means colony-forming unit, which is a group of microbes that grows from a single cell on a petri plate; DMSO means dimethyl sulfoxide; MHB means Mueller-Hinton broth; caMHB means cation-adjusted Mueller-Hinton broth; MIC means minimum inhibitory concentration—the lower the MIC, the more efficient the combination against the respective bacterial strain.
General Protocol 2 Used in Examples 11-23 Employing a Fixed Concentration of sBLI within Each Experiment:
Antimicrobial susceptibility testing (AST) by broth microdilution (MIC determination) was performed according to The European Committee on Antimicrobial Susceptibility Testing (EUCAST) guidelines (see Reading guide for broth microdilution Version 5.0, 2024: https://www.eucast.org).
Sterile clear round bottom polystyrene (non-treated) 96-well microplates (Corning 3788) were used for making serial two-fold dilutions of the antibiotic in cation-adjusted Mueller Hinton II broth (caMHB; Thermo Scientific, T3462, containing 29.4 μM Zn^2+ or MILLIPORE, 90922-500G, containing 5.6 μM Zn^2+), across the columns of the microtiter plate (128-0.06 μg/mL; columns 1-12).
The checkerboard plates were all modified by adding a serine β-lactamase inhibitor (sBLI) at a fixed concentration of 16 μg/mL. Additionally, the zinc chelator was added at various fixed concentrations. Samples were mixed so that all plates contained a control containing antibiotic alone (no sBLI, no zinc chelator), a sample containing antibiotic and sBLI (double combination; no zinc chelator), and a sample containing antibiotic, sBLI and zinc chelator (triple combination). All test wells used in each plate contained growth medium (caMHB), and inoculated bacteria at a final inoculum between 3-7×10^5 CFU/mL. […] Synergy for the triple combination (antibiotic, sBLI, and zinc chelator) was defined as when the MIC in any of the rows containing the zinc chelator in combination with antibiotic and sBLI (triple combination), was lower than for antibiotic alone and lower than for the antibiotic and sBLI double combination.
(§1) An X in rows 1-4 in the table indicates growth of the bacterial inoculum, while a blank cell indicates no growth. Concentrations (μg/mL) of FEP are given in row 0. AVI and the zinc chelator were added in fixed concentrations (AVI at 16 μg/mL in rows 2-4, zinc chelator at 16 μg/mL in row 3 and at 8 μg/mL in row 4). As a control, the effect of FEP alone was tested (row 1). All wells contained bacterial growth medium (caMHB, 29.4 μM Zn^2+) and were inoculated with the test bacterium. The grey cells indicate the FEP MIC.
as §1, with “SUL” for “AVI”, “(SUL” for “(AVI”
An X in rows 1-4 in the table indicates growth of the bacterial inoculum, while a blank cell indicates no growth. Concentrations (μg/mL) of FEP are given in row 0. TAZ and the zinc chelator were added in fixed concentrations (TAZ at 16 μg/mL in rows 2-4, zinc chelator at 16 μg/mL in row 3 and at 8 μg/mL in row 4). […]

Measured: synergy with the zinc chelator

CN(C[C@H](O)[C@@H](O)[C@H](O)[C@H](O)CO)C(=O)c1ccc(CN(Cc2ccccn2)Cc2ccccn2)nc1 [zinc chelator]
Synergy: zinc chelator 4 μg/mL, with CEFP and SUL 16 μg/mL, caMHB 5.6 μM Zn2+ | zinc chelator 4 μg/mL, with FEP and AVI 16 μg/mL, caMHB 5.6 μM Zn2+ | zinc chelator 8 μg/mL, with CEFP and SUL 16 μg/mL, caMHB 5.6 μM Zn2+ | zinc chelator 8 μg/mL, with FEP and AVI 16 μg/mL, caMHB 5.6 μM Zn2+ | zinc chelator 8 μg/mL, with FEP and AVI 16 μg/mL, caMHB 29.4 μM Zn2+ | zinc chelator 8 μg/mL, with FEP and SUL 16 μg/mL, caMHB 29.4 μM Zn2+ | zinc chelator 8 μg/mL, with FEP and TAZ 16 μg/mL, caMHB 5.6 μM Zn2+ | zinc chelator 8 μg/mL, with FEP and TAZ 16 μg/mL, caMHB 29.4 μM Zn2+ | zinc chelator 16 μg/mL, with CEFP and SUL 16 μg/mL, caMHB 5.6 μM Zn2+ | zinc chelator 16 μg/mL, with CEFP and SUL 16 μg/mL, caMHB 29.4 μM Zn2+ | zinc chelator 16 μg/mL, with FEP and AVI 16 μg/mL, caMHB 29.4 μM Zn2+ | zinc chelator 16 μg/mL, with FEP and SUL 16 μg/mL, caMHB 29.4 μM Zn2+ | zinc chelator 16 μg/mL, with FEP and TAZ 16 μg/mL, caMHB 5.6 μM Zn2+ | zinc chelator 16 μg/mL, with FEP and TAZ 16 μg/mL, caMHB 29.4 μM Zn2+
